In brackets after ≈: the same amount, converted by molar mass.
System: Leishmania major
Assay: Antileishmanial activity against promastigote form of Leishmania major after 72 hr by Neubauer counting analysis
Assay type: functional, organism-based

IC50 | Compound
0.68 µg/mL (≈ 3.5 µM) | c1ccc(-c2nc3ccccc3[nH]2)cc1
0.85 µg/mL (≈ 3.16 µM) | COc1ccc(-c2nc3cc([N+](=O)[O-])ccc3[nH]2)cc1
0.79 µg/mL (≈ 2.78 µM) | O=[N+]([O-])c1cccc(-c2nc3cc([N+](=O)[O-])ccc3[nH]2)c1
0.79 µg/mL (≈ 3.72 µM) | Fc1ccc(-c2nc3ccccc3[nH]2)cc1
0.62 µg/mL (≈ 3.1 µM) | c1csc(-c2nc3ccccc3[nH]2)c1
0.69 µg/mL (≈ 2.88 µM) | O=[N+]([O-])c1ccccc1-c1nc2ccccc2[nH]1
0.64 µg/mL (≈ 2.63 µM) | Cc1ccc(-c2nc3cc([N+](=O)[O-])ccc3[nH]2)o1
0.77 µg/mL (≈ 2.99 µM) | O=[N+]([O-])c1ccc2[nH]c(-c3ccc(F)cc3)nc2c1
0.62 µg/mL (≈ 2.23 µM) | O=[N+]([O-])c1ccc2[nH]c(-c3c[nH]c4ccccc34)nc2c1
0.82 µg/mL (≈ 3.34 µM) | O=[N+]([O-])c1ccc2[nH]c(-c3cccs3)nc2c1
0.77 µg/mL (≈ 3.43 µM) | COc1cccc(-c2nc3ccccc3[nH]2)c1
0.64 µg/mL (≈ 2.71 µM) | CC(C)c1ccc(-c2nc3ccccc3[nH]2)cc1
0.84 µg/mL (≈ 4.24 µM) | Cc1ccc(-c2nc3ccccc3[nH]2)o1
0.92 µg/mL (≈ 4.38 µM) | Oc1ccc(-c2nc3ccccc3[nH]2)cc1
0.88 µg/mL (≈ 4.51 µM) | c1ccc2[nH]c(-c3ccncc3)nc2c1
0.71 µg/mL (≈ 2.97 µM) | O=[N+]([O-])c1ccc(-c2nc3ccccc3[nH]2)cc1
0.65 µg/mL (≈ 2.44 µM) | CCCCOc1ccc(-c2nc3ccccc3[nH]2)cc1

Further lines, the compound ahead of its results:

Compound | IC50
O=[N+]([O-])c1ccc2[nH]c(-c3ccccc3)nc2c1 | 0.8 µg/mL (≈ 3.34 µM)
O=[N+]([O-])c1ccc2[nH]c(-c3ccc(Cl)cc3)nc2c1 | 0.64 µg/mL (≈ 2.34 µM)
Cc1ccc(-c2nc3cc([N+](=O)[O-])ccc3[nH]2)cc1 | 0.88 µg/mL (≈ 3.47 µM)
O=[N+]([O-])c1ccc2[nH]c(-c3ccccc3[N+](=O)[O-])nc2c1 | 0.73 µg/mL (≈ 2.57 µM)
O=[N+]([O-])c1ccc(-c2nc3cc([N+](=O)[O-])ccc3[nH]2)cc1 | 0.75 µg/mL (≈ 2.64 µM)
O=[N+]([O-])c1ccc2[nH]c(-c3cccnc3)nc2c1 | 0.79 µg/mL (≈ 3.29 µM)
O=[N+]([O-])c1ccc2nc(-c3ccccc3Cl)[nH]c2c1 | 0.91 µg/mL (≈ 3.33 µM)
Cc1ccc(-c2nc3ccccc3[nH]2)cc1 | 0.79 µg/mL (≈ 3.79 µM)
CCCCOc1ccc(-c2nc3cc([N+](=O)[O-])ccc3[nH]2)cc1 | 0.76 µg/mL (≈ 2.44 µM)
CC(C)c1ccc(-c2nc3cc([N+](=O)[O-])ccc3[nH]2)cc1 | 0.8 µg/mL (≈ 2.84 µM)
O=[N+]([O-])c1ccc2[nH]c(-c3ccc[nH]3)nc2c1 | 0.91 µg/mL (≈ 3.99 µM)
c1ccc2[nH]c(-c3c[nH]c4ccccc34)nc2c1 | 0.87 µg/mL (≈ 3.73 µM)
c1c[nH]c(-c2nc3ccccc3[nH]2)c1 | 0.63 µg/mL (≈ 3.44 µM)
COc1cccc(-c2nc3cc([N+](=O)[O-])ccc3[nH]2)c1 | 0.82 µg/mL (≈ 3.05 µM)
COc1ccc(-c2nc3ccccc3[nH]2)cc1 | 0.81 µg/mL (≈ 3.61 µM)
O=[N+]([O-])c1ccc2[nH]c(-c3ccccn3)nc2c1 | 0.73 µg/mL (≈ 3.04 µM)
Clc1ccccc1-c1nc2ccccc2[nH]1 | 0.78 µg/mL (≈ 3.41 µM)
Clc1ccc(-c2nc3ccccc3[nH]2)cc1 | 0.72 µg/mL (≈ 3.15 µM)
O=[N+]([O-])c1cccc(-c2nc3ccccc3[nH]2)c1 | 0.82 µg/mL (≈ 3.43 µM)
c1cncc(-c2nc3ccccc3[nH]2)c1 | 0.64 µg/mL (≈ 3.28 µM)

Reference: ChEMBL document CHEMBL3046371, “Benzimidazole derivatives: synthesis, leishmanicidal effectiveness, and molecular docking studies” (Med Chem Res, 2013)
